Assay results taken from patent US11045562B2, “Radiolabelled mGluR2/3 PET ligands” (Janssen Pharmaceutica NV, priority 2015, dated 2021).

Experiments:
[1] = Ex-vivo biodistribution in Sprague-Dawley rats; details: for Uptake, Mean 2 min: 2 min after i.v. injection; for Uptake, Mean 2 min / Uptake, Mean 10 min / Uptake, Mean 30 min / Uptake, Mean 60 min: n=3; for Uptake, Mean 10 min: 10 min after i.v. injection; for Uptake, Mean 30 min: 30 min after i.v. injection; for Uptake, Mean 60 min: 60 min after i.v. injection
Protocol: (§1) Sprague-Dawley rats obtained from Harlan (the Netherlands), were housed in groups of four to six per cage until treatment. They were kept at a constant temperature of 21° C. and at a 12-h light/dark cycle, in which lights were switched on at 8:00 a.m. Animals had unrestricted access to food (Teklad Global 16% Protein Rodent Diet, Harlan, Madison, Wis., USA) and water. All animal experiments were performed in compliance with Belgium laws on animal experimentation and after approval by the local animal ethics committee.
The biodistribution of [^18F]-1 was determined at 2, 10, 30 and 60 min, after injection in Sprague Dawley rats (n=3 per time point. Rats were injected intravenously with 0.7-1.1 MBq via a tail vein and euthanized at the time points indicated above, under isoflurane anesthesia. All tissues were dissected, weighed and counted for radioactivity in a gamma counter.

mGluR2/3 = assay: microPET scanning in SD rats, baseline and compound A pretreatment; type: in vivo
Protocol: Data were acquired in a 128×128×95 matrix with a pixel width of 0.475 mm and a slice thickness of 0.796 mm. During PET imaging, rats were kept under gas anesthesia (2.5% isoflurane in oxygen at a flow rate of 1 l/min), and their body temperature was maintained between 36.5 and 37° C. using a heating pad. PET data were analyzed using Pmod software version 3.2 (Pmod, Zurich Switzerland).
as §1
The peak uptake in frontal cortex during the baseline scan was observed around 15 min after tracer injection.

## C[C@H]1CN(c2ccc(C(F)(F)F)c(C[18F])c2)C(=O)c2c(NC(=O)c3cccnc3N)cnn21 [compound 1]
[1]; all brain areas except for the pons
  time of highest uptake: around 10 min
[1]; blood
  Uptake, Mean 2 min: 0.72 SUV
  Uptake, Mean 10 min: 0.50 SUV
  Uptake, Mean 30 min: 0.39 SUV
  Uptake, Mean 60 min: 0.28 SUV
[1]; bone
  Uptake, Mean 2 min: 0.61 SUV
  Uptake, Mean 10 min: 0.52 SUV
  Uptake, Mean 30 min: 0.73 SUV
  Uptake, Mean 60 min: 0.67 SUV
[1]; cerebellum
  Uptake, Mean 2 min: 3.42 SUV
  Uptake, Mean 10 min: 3.33 SUV
  Uptake, Mean 30 min: 1.90 SUV
  Uptake, Mean 60 min: 0.72 SUV
[1]; cerebrum + cerebellum
  Uptake, Mean 2 min: 3.19 SUV
  Uptake, Mean 10 min: 3.45 SUV
  Uptake, Mean 30 min: 2.28 SUV
  Uptake, Mean 60 min: 0.85 SUV
[1]; cortex
  Uptake, Mean 2 min: 5.42 SUV
  Uptake, Mean 10 min: 5.98 SUV
  Uptake, Mean 30 min: 3.87 SUV
  Uptake, Mean 60 min: 1.36 SUV
[1]; ex-vivo biodistribution, SD rats
  brain uptake: high
[1]; ex-vivo biodistribution, hinting for some defluorination
  bone uptake over time: went slightly up over time
[1]; followed by a fast washout
  uptake in liver, kidneys, pancreas and heart: high initial uptake
[1]; heart
  Uptake, Mean 2 min: 4.73 SUV
  Uptake, Mean 10 min: 2.16 SUV
  Uptake, Mean 30 min: 1.49 SUV
  Uptake, Mean 60 min: 1.14 SUV
[1]; hippocampus
  Uptake, Mean 2 min: 2.49 SUV
  Uptake, Mean 10 min: 2.83 SUV
  Uptake, Mean 30 min: 1.94 SUV
  Uptake, Mean 60 min: 0.80 SUV
[1]; kidneys
  Uptake, Mean 2 min: 6.59 SUV
  Uptake, Mean 10 min: 2.76 SUV
  Uptake, Mean 30 min: 2.24 SUV
  Uptake, Mean 60 min: 1.87 SUV
[1]; liver
  Uptake, Mean 2 min: 8.81 SUV
  Uptake, Mean 10 min: 5.70 SUV
  Uptake, Mean 30 min: 3.90 SUV
  Uptake, Mean 60 min: 2.42 SUV
[1]; lungs
  Uptake, Mean 2 min: 4.70 SUV
  Uptake, Mean 10 min: 2.27 SUV
  Uptake, Mean 30 min: 2.01 SUV
  Uptake, Mean 60 min: 1.77 SUV
[1]; muscle
  Uptake, Mean 2 min: 0.57 SUV
  Uptake, Mean 10 min: 1.07 SUV
  Uptake, Mean 30 min: 0.87 SUV
  Uptake, Mean 60 min: 0.65 SUV
[1]; pancreas
  Uptake, Mean 2 min: 6.47 SUV
  Uptake, Mean 10 min: 3.07 SUV
  Uptake, Mean 30 min: 2.84 SUV
  Uptake, Mean 60 min: 2.75 SUV
[1]; pons
  time of peak uptake: 2 min
  Uptake, Mean 2 min: 2.65 SUV
  Uptake, Mean 10 min: 2.13 SUV
  Uptake, Mean 30 min: 1.29 SUV
  Uptake, Mean 60 min: 0.56 SUV
[1]; rest of cerebrum
  Uptake, Mean 2 min: 3.24 SUV
  Uptake, Mean 10 min: 3.74 SUV
  Uptake, Mean 30 min: 2.45 SUV
  Uptake, Mean 60 min: 0.91 SUV
[1]; spleen
  Uptake, Mean 2 min: 3.71 SUV
  Uptake, Mean 10 min: 1.64 SUV
  Uptake, Mean 30 min: 1.13 SUV
  Uptake, Mean 60 min: 0.87 SUV
[1]; striatum
  Uptake, Mean 2 min: 3.21 SUV
  Uptake, Mean 10 min: 3.56 SUV
  Uptake, Mean 30 min: 3.03 SUV
  Uptake, Mean 60 min: 1.14 SUV
[1]; whole cerebrum
  Uptake, Mean 2 min: 3.11 SUV
  Uptake, Mean 10 min: 3.43 SUV
  Uptake, Mean 30 min: 2.31 SUV
  Uptake, Mean 60 min: 0.87 SUV
[1]; with a slow washout
  blood uptake: low
mGluR2/3; frontal cortex, baseline scan
  time of peak uptake after tracer injection: around 15 min
mGluR2/3; pons uptake in same range as other regions after compound A pretreatment
  mGluR2/3 specificity of brain uptake: good mGluR2/3 specificity
